According to patent US20260049105A1, “SELECTIVE MC4R LIGAND FOR TREATING OBESITY AND COGNITIVE LOSS” (ARIZONA BOARD OF REGENTS ON BEHALF OF THE UNIVERSITY OF …, priority 2022, published 2026):

Columns and labels:
hMC4R [1] = target: T1, hMC4R (Homo sapiens, UniProt P32245); assay: Competitive receptor binding assay, whole HEK293 cells, 125I-NDP-α-MSH; conditions: hM4CR; for inhibition at 10 µM: 40 min, percentage of [125I]NDP-α-MSH displacement at 10 μM, read-out: BE%
T1 construct: expressed in transfected cells; host or cells: HEK293
T1 sequence (P32245 whole entry): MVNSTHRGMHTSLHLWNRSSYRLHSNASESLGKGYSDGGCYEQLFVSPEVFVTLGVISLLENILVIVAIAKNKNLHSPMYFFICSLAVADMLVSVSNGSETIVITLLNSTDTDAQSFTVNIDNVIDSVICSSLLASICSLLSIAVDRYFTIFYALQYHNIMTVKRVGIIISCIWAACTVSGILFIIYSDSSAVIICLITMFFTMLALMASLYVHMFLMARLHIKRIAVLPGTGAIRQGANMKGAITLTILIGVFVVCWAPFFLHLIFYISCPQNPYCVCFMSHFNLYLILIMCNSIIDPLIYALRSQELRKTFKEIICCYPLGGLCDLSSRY
Procedure: (§1) Competition binding experiments were performed on whole cells. The transfected HEK293 cell line with hMC4Rs were seeded on 96 well plates, 48 hours before the assay, 100,000 cells/well. For the assay, the medium was removed and cells were washed twice with a freshly prepared binding buffer containing 100% minimum essential medium with Earle's salt (MEM, GIBCO), 25 mM HEPES (pH 7.4), 0.2% bovine serum albumin, 1 mM 1,10-phenanthroline, 0.5 mg/L leupeptin, and 200 mg/L bacitracin. […] The medium was subsequently removed and each well was washed twice with the assay buffer. The cells are lysed by the addition of 250 μL of 0.1 NaOH and 250 μL of 1% Triton X-100. […] Data were analyzed using Graphpad Prism 6.0 (Graphpad Software, San Diego, CA).
IC50 and EC50 values represent the mean of duplicate experiments performed in triplicate. IC50 and EC50 estimates and their associated standard errors were determined by fitting the data using nonlinear least-squares analysis, with the help of Graphpad Prism 6.0 (Graphpad Software, San Diego, CA). […]

hMC1R [2] = target: T2, hMC1R (Homo sapiens, UniProt Q01726); assay: Adenylate cyclase (cAMP) assay in transfected HEK293 cells; assay type: cell-based; conditions: HEK293, 0.05 h; hM1CR; cAMP at 10 μM in relation to MT-II; read-out: Act %
T2 construct: expressed in transfected cells; host or cells: HEK293
T2 sequence (Q01726 whole entry): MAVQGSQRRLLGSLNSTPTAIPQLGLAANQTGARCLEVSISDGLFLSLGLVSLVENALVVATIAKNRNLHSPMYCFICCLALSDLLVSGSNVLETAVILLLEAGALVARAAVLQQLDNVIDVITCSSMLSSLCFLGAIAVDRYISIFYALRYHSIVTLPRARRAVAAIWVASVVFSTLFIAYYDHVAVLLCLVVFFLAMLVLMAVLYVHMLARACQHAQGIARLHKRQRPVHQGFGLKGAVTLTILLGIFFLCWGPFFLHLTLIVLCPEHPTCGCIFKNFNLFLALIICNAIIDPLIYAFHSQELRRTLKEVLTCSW
Procedure: (§2) HEK293 cells transfected with human melanocortin receptors were grown to confluence in MEM medium (GIBCO) containing 10% fetal bovine serum, 100 units/mL penicillin and streptomycin, and 1 mM sodium pyruvate. The cells were seeded on 96 well plates 48 hours before the assay, (100,000 cells/well). For the assay, the medium was removed and cells were rinsed with 1 mL of MEM buffer (GIBCO) or with Earle's balanced salt solution (EBSS, GIBCO). An aliquot (0.4 mL) of Earle's balanced salt solution was placed in each well along with isobutylmethylxanthine (IBMX; 5 μL; 0.5 mM) for 1 minute at 37° C. Varying concentrations of melanotropins (0.1 mL) were added and the cells incubated for 3 minutes at 37° C. The reaction was stopped by aspirating the buffer and adding ice-cold Tris/EDTA buffer to each well (0.15 mL). The 96 well plates were covered and placed on ice. After dislodging the cells, the plates were placed in a boiling water bath for 15 minutes. The cell lysate was then centrifuged for 10 minutes (4000 rpm), and 50 μL of the supernatant was aliquoted into perkinElmer glass fiber filter plate. cAMP content was measured by competitive binding assay in addition to 50 μL H^3 cAMP and 100 μL PKA. Then the system was placed on ice for 2 hours and then vacuum and filtered. 100 μL of the OptiPhase Supermix scintillation fluid was added to the plate. The plates stayed for 8 hours and then read by MicroBeta radiation plate reader.
(§3) IC50 and EC50 values represent the mean of duplicate experiments performed in triplicate. IC50 and EC50 estimates and their associated standard errors were determined by fitting the data using nonlinear least-squares analysis, with the help of Graphpad Prism 6.0 (Graphpad Software, San Diego, CA).
(§4) NA indicates 0% cAMP accumulation observed at 10 μM. The peptides were tested over a range of concentrations from 10^-10 to 10^-5 M.

hMC3R [3] = target: T3, hMC3R (Homo sapiens, UniProt P41968); assay: as above; assay type: cell-based; conditions: hM3CR; for Emax at 10 µM: HEK293, 0.05 h, cAMP at 10 μM in relation to MT-II, read-out: Act %
T3 construct: expressed in transfected cells; host or cells: HEK293
T3 sequence (P41968 whole entry): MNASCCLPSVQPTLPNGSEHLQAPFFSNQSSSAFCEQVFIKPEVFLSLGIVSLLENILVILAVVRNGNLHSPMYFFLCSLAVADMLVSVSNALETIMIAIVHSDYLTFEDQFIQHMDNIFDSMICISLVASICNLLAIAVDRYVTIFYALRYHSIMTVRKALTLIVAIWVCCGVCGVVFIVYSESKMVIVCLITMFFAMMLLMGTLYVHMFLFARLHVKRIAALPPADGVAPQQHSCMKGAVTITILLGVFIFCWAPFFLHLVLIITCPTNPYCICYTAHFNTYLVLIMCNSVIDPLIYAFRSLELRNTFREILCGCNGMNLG
Procedure: as §2, §3, §4

hMC5R [4] = target: T4, hMC5R (Homo sapiens, UniProt P33032); assay: as above; assay type: cell-based; conditions: hM5CR; for Emax at 10 µM: HEK293, 0.05 h, cAMP at 10 μM in relation to MT-II, read-out: Act %
T4 construct: expressed in transfected cells; host or cells: HEK293
T4 sequence (P33032 whole entry): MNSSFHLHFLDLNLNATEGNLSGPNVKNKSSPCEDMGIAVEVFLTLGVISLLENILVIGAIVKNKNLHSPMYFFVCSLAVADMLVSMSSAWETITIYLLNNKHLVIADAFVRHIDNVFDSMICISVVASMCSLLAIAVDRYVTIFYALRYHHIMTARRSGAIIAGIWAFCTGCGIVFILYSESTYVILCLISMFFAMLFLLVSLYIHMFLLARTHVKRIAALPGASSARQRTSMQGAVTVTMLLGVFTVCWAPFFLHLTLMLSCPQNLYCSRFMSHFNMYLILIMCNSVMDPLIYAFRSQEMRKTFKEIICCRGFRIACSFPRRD
Procedure: as §2, §3, §4

hMC5R [5] = target: T4, hMC5R; assay: Competitive receptor binding assay, whole HEK293 cells, 125I-NDP-α-MSH; conditions: 40 min; hM5CR; percentage of NDP-α-MSH displacement at 10 μM; read-out: BE %
Procedure: [The procedure below names another target; the source lists this target under the same test.] as §1, §3, §4

hMC1R [6] = target: T2, hMC1R; assay: as above; conditions: 40 min; hM1CR; percentage of NDP-α-MSH displacement at 10 μM; read-out: BE %
Procedure: [The procedure below names another target; the source lists this target under the same test.] (§5) Competition binding experiments were performed on whole cells. The transfected HEK293 cell line with hMC4Rs were seeded on 96 well plates, 48 hours before the assay, 100,000 cells/well. For the assay, the medium was removed and cells were washed twice with a freshly prepared binding buffer containing 100% minimum essential medium with Earle's salt (MEM, GIBCO), 25 mM HEPES (pH 7.4), 0.2% bovine serum albumin, 1 mM 1,10-phenanthroline, 0.5 mg/L leupeptin, and 200 mg/L bacitracin. […] The medium was subsequently removed and each well was washed twice with the assay buffer. The cells are lysed by the addition of 250 μL of 0.1 NaOH and 250 μL of 1% Triton X-100. The lysed cell was transferred to the 12×75 mm glass tubes and the radioactivity was measured by Wallac 1470 WIZARD Gamma Counter. Data were analyzed using Graphpad Prism 6.0 (Graphpad Software, San Diego, CA).
as §3, §4

hMC3R [7] = target: T3, hMC3R; assay: as above; conditions: 40 min; hM3CR; percentage of NDP-α-MSH displacement at 10 μM; read-out: BE %
Procedure: [The procedure below names another target; the source lists this target under the same test.] as §5, §3, §4

hMC4R [8] = target: T1, hMC4R; assay: Adenylate cyclase (cAMP) assay in transfected HEK293 cells; assay type: cell-based; conditions: hM4CR; 50% maximal intracellular cAMP accumulation, N=4
hMC4R [9] = target: T1, hMC4R; assay: as above; assay type: cell-based; conditions: HEK293, 0.05 h; hM4CR; percentage of cAMP produced at 10 μM in relation to MT-II; read-out: Act%
Procedure: as §2, with “The” for “HEK293 cells transfected with human melanocortin receptors were grown to confluence in MEM medium (GIBCO) containing 10% fetal bovine serum, 100 units/mL penicillin and streptomycin, and 1 mM sodium pyruvate. The”, “reader. IC50 and EC50 values represent the mean of duplicate experiments performed in triplicate. […] NA indicates 0% cAMP accumulation observed at 10 μM. The peptides were tested over a range of concentrations from 10^-10 to 10^-5 M.” for “reader.”

CC(=O)N[C@@H](CCCNC(=N)N)C(=O)N[C@H]1CC(=O)NCCCC[C@@H](C(N)=O)NC(=O)C[C@H](Cc2c[nH]c3ccccc23)NC(=O)[C@H](CCCNC(=N)N)NC(=O)[C@@H](Cc2ccccc2)NC(=O)[C@@H]2CCCCN2C1=O [compound 1, Ac-Arg-cyclo[Asp-Pip-D-Phe-Arg-BTrp-Lys]-NH2]
inhibition at 10 µM (hMC4R [1]): 0%
Emax at 10 µM (hMC1R [2]): 88%
Emax at 10 µM (hMC3R [3]): 88%
Emax at 10 µM (hMC5R [4]): 95%
inhibition at 10 µM (hMC5R [5]): 66%
inhibition at 10 µM (hMC1R [6]): 100%
inhibition at 10 µM (hMC3R [7]): 60%
EC50 (hMC4R [8]): > 1 µM
Emax at 10 µM (hMC4R [9]): 63%

CC(=O)N[C@@H](CCCNC(=N)N)C(=O)N[C@H]1CC(=O)NCCCC[C@@H](C(N)=O)NC(=O)[C@H](Cc2c[nH]c3ccccc23)NC(=O)C[C@H](CCCNC(=N)N)NC(=O)[C@@H](Cc2ccc(F)cc2)NC(=O)[C@@H]2CCCCN2C1=O [compound 5, Ac-Arg-cyclo[Asp-Pip-D-Phe(4-F)-βArg-Trp-Lys]-NH2]
inhibition at 10 µM (hMC4R [1]): 23%
IC50 (hMC4R [1]; concentration of peptide at 50% specific binding, N=4): > 1 µM
Emax at 10 µM (hMC1R [2]): 100%
Emax at 10 µM (hMC3R [3]): 59%
EC50 (hMC3R [3]; cAMP accumulation, N=4): > 1 µM
Emax at 10 µM (hMC5R [4]): 62%
EC50 (hMC5R [4]; cAMP accumulation, N=4): > 1 µM
inhibition at 10 µM (hMC5R [5]): 0%
inhibition at 10 µM (hMC1R [6]): 100%
inhibition at 10 µM (hMC3R [7]): 100%
EC50 (hMC4R [8]): > 1 µM
Emax at 10 µM (hMC4R [9]): 84%
